One experiment addresses T1, GPR3 (Homo sapiens, UniProt P46089).
T1 construct: expressed in transfected cells; host or cells: CHO cells
As to the kind of experiment: GPR3 antagonist functional cAMP assay (LANCE Ultra cAMP TR-FRET, CHO cells stably expressing GPR3). It is filed as cell-based. The note with it: CHO cells stably expressing GPR3, cAMP assay (Example 24). Summed up: (§1)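 Stable CHO-GPR6 or CHO-GPR3 cells (10,000/well) in Krebs-Ringer buffer with 0.1% BSA and 150 μM Ro 20-1724 were exposed to compounds for 45 min at 37° C (0.1% DMSO). cAMP read by LANCE Ultra TR-FRET; IC50 from 4-parameter fit normalized to DMSO and reference compounds.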

Another experiment has as its target T2, GPR6 (Homo sapiens, UniProt P46095).
T2 construct: expressed in transfected cells; host or cells: CHO cells
As to the kind of experiment: GPR6 antagonist functional cAMP assay (LANCE Ultra cAMP TR-FRET, CHO cells stably expressing GPR6). The note with it: CHO cells stably expressing GPR6, cAMP assay (Example 24). The class given is cell-based. Summed up: as §1

T2 sequence (P46095 whole entry): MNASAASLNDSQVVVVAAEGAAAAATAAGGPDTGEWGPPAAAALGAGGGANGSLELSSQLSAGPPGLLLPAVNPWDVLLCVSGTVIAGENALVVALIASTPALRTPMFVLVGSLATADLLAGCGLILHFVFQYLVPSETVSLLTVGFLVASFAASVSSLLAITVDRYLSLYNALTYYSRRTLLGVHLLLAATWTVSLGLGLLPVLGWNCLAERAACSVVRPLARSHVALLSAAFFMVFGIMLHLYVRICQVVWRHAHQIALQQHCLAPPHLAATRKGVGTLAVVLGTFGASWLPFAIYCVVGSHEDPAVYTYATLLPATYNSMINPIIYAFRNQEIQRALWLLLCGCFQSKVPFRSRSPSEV
T1 sequence (P46089 whole entry, species assumed): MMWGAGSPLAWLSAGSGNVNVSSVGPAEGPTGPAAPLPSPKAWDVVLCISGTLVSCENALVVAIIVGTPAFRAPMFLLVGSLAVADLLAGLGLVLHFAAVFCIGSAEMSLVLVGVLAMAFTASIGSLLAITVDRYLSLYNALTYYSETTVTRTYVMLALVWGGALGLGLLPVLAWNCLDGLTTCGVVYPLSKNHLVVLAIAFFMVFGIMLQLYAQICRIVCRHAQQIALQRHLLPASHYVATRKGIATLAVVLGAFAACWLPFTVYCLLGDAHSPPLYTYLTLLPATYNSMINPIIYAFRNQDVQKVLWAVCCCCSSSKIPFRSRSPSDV

Consider `CNC(=O)CN1CCc2nc(N3CCC(Oc4ccc(F)cc4F)CC3)c(-c3cnn(C4CCCCO4)c3)nc2C1` (stereo not shown) [Compound 144, 2-{2-[4-(2,4-difluorophenoxy)piperidin-1-yl]-3-[1-(oxan-2-yl)-1H-pyrazol-4-yl]-5H,6H,7H,8H-pyrido[3,4-b]pyrazin-6-yl}-N-methylacetamide], for which the IC50 on GPR3 and on GPR6 was 1 to 30 µM throughout.

Take `CNC(=O)CN1CCc2nc(N3CCC(Oc4ccc(F)cc4F)CC3)c(-c3cn[nH]c3)nc2C1` [Compound 145, 2-{2-[4-(2,4-difluorophenoxy)piperidin-1-yl]-3-(1H-pyrazol-4-yl)-5H,6H,7H,8H-pyrido[3,4-b]pyrazin-6-yl}-N-methylacetamide]: the IC50 against GPR3 and against GPR6 was 1 to 30 µM in each case.

As to `CNC(=O)C(C)N1CCc2nc(N3CCC(Oc4ccc(F)cc4F)CC3)c(-c3cnn(C4CCCCO4)c3)nc2C1` (stereo not shown) [Compound 146, 2-{2-[4-(2,4-difluorophenoxy)piperidin-1-yl]-3-[1-(oxan-2-yl)-1H-pyrazol-4-yl]-5H,6H,7H,8H-pyrido[3,4-b]pyrazin-6-yl}-N-methylpropanamide], the IC50 on GPR3 and against GPR6 was 1 to 30 µM throughout.

For `CNC(=O)C(C)N1CCc2nc(N3CCC(Oc4ccc(F)cc4F)CC3)c(-c3cn[nH]c3)nc2C1` (stereo not shown) [Compound 147, 2-{2-[4-(2,4-difluorophenoxy)piperidin-1-yl]-3-(1H-pyrazol-4-yl)-5H,6H,7H,8H-pyrido[3,4-b]pyrazin-6-yl}-N-methylpropanamide], the IC50 on GPR3 and at GPR6 was 1 to 30 µM in each case.

Consider `COCC(=O)N1CCc2nc(N3CCC(Oc4ccc(F)cc4F)CC3)c(-c3cn[nH]c3)nc2C1` [Compound 148, 1-{2-[4-(2,4-difluorophenoxy)piperidin-1-yl]-3-(1H-pyrazol-4-yl)-5H,6H,7H,8H-pyrido[3,4-b]pyrazin-6-yl}-2-methoxyethan-1-one], for which the IC50 is 1 to 30 µM on GPR3 and under 0.1 µM against GPR6.

Turning to `O=C(CN1CCOCC1)N1CCc2nc(N3CCC(Oc4ccc(F)cc4F)CC3)c(-c3cn[nH]c3)nc2C1` [Compound 149, 1-{2-[4-(2,4-difluorophenoxy)piperidin-1-yl]-3-(1H-pyrazol-4-yl)-5H,6H,7H,8H-pyrido[3,4-b]pyrazin-6-yl}-2-(morpholin-4-yl)ethan-1-one], the IC50 against GPR3 was in the range of 1 to 30 µM; on GPR6 it was 0.1 to 1 µM.

Turning to `CC(C)S(=O)(=O)N1CCc2nc(N3CCC(Oc4ccc(F)cc4F)CC3)c(-c3cn[nH]c3)nc2C1` [Compound 150, 4-(2,4-difluorophenoxy)-1-[6-(propane-2-sulfonyl)-3-(1H-pyrazol-4-yl)-5H,6H,7H,8H-pyrido[3,4-b]pyrazin-2-yl]piperidine], the IC50 against GPR3 is 1 to 30 µM; against GPR6, under 0.1 µM.

Turning to `O=S(=O)(C1COC1)N1CCc2nc(N3CCC(Oc4ccc(F)cc4F)CC3)c(-c3cnn(C4CCCCO4)c3)nc2C1` (stereo not shown) [Compound 151, 4-(2,4-difluorophenoxy)-1-{3-[1-(oxan-2-yl)-1H-pyrazol-4-yl]-6-(oxetane-3-sulfonyl)-5H,6H,7H,8H-pyrido[3,4-b]pyrazin-2-yl}piperidine], the IC50 against GPR3 and on GPR6 was 1 to 30 µM each time.

With `CC(C)(C)OC(=O)N1CC(C(=O)N2CCc3nc(N4CCC(Oc5ccc(F)cc5F)CC4)c(-c4cnn(C5CCCCO5)c4)nc3C2)C1` (stereo not shown) [Compound 152, tert-butyl 3-{2-[4-(2,4-difluorophenoxy)piperidin-1-yl]-3-[1-(oxan-2-yl)-1H-pyrazol-4-yl]-5H,6H,7H,8H-pyrido[3,4-b]pyrazine-6-carbonyl}azetidine-1-carboxylate], the IC50 at GPR3 and against GPR6 was 1 to 30 µM each time.

For `O=C(C1CNC1)N1CCc2nc(N3CCC(Oc4ccc(F)cc4F)CC3)c(-c3cn[nH]c3)nc2C1` [Compound 153, 1-[6-(azetidine-3-carbonyl)-3-(1H-pyrazol-4-yl)-5H,6H,7H,8H-pyrido[3,4-b]pyrazin-2-yl]-4-(2,4-difluorophenoxy)piperidine], the IC50 on GPR3 and against GPR6 was 1 to 30 µM each time.

Take `COC(=O)N1CCc2nc(N3CCC(Oc4ccc(F)cc4F)CC3)c(-c3cn[nH]c3)nc2C1` [Compound 154, methyl 2-[4-(2,4-difluorophenoxy)piperidin-1-yl]-3-(1H-pyrazol-4-yl)-5H,6H,7H,8H-pyrido[3,4-b]pyrazine-6-carboxylate]: the IC50 is 1 to 30 µM against GPR3 and under 0.1 µM on GPR6.

As to `CC(C)OC(=O)N1CCc2nc(N3CCC(Oc4ccc(F)cc4F)CC3)c(-c3cnn(C4CCCCO4)c3)nc2C1` (stereo not shown) [Compound 156, propan-2-yl 2-[4-(2,4-difluorophenoxy)piperidin-1-yl]-3-[1-(oxan-2-yl)-1H-pyrazol-4-yl]-5H,6H,7H,8H-pyrido[3,4-b]pyrazine-6-carboxylate], the IC50 against GPR3 and against GPR6 was 1 to 30 µM each time.

Turning to `CC(=O)N1CCc2nc(N3CCC(Oc4ccc(F)cc4F)CC3)c(-c3ccc[nH]c3=O)nc2C1` [Compound 157, 3-{6-acetyl-2-[4-(2,4-difluorophenoxy)piperidin-1-yl]-5H,6H,7H,8H-pyrido[3,4-b]pyrazin-3-yl}-1,2-dihydropyridin-2-one], the IC50 against GPR3 and at GPR6 was at least 30 µM throughout.

Turning to `CC(=O)N1CCc2nc(N3CCC(Oc4ccc(F)cc4F)CC3)c(-c3cncc(O)c3)nc2C1` [Compound 158, 1-{2-[4-(2,4-difluorophenoxy)piperidin-1-yl]-3-(5-hydroxypyridin-3-yl)-5H,6H,7H,8H-pyrido[3,4-b]pyrazin-6-yl}ethan-1-one], the IC50 at GPR3 and against GPR6 was 1 to 30 µM throughout.

As to `COc1cncc(-c2nc3cnc(Cl)cc3nc2N2CCN(Cc3ccc(F)cc3F)CC2)n1` [Compound 159, 2-(7-chloro-2-{4-[(2,4-difluorophenyl)methyl]piperazin-1-yl}pyrido[3,4-b]pyrazin-3-yl)-6-methoxypyrazine], the IC50 on GPR3 and against GPR6 was 1 to 30 µM each time.

Consider `COc1ncc(-c2nc3c(nc2N2CCC(Oc4ccc(F)cc4F)CC2)CCN(C(C)=O)C3)cc1F` [Compound 160, 1-{2-[4-(2,4-difluorophenoxy)piperidin-1-yl]-3-(5-fluoro-6-methoxypyridin-3-yl)-5H,6H,7H,8H-pyrido[3,4-b]pyrazin-6-yl}ethan-1-one], for which the IC50 against GPR3 is 1 to 30 µM; at GPR6 it was 0.1 to 1 µM.

As to `COCc1cccc(-c2nc3c(nc2N2CCC(Oc4ccc(F)cc4F)CC2)CCN(C(C)=O)C3)n1` [Compound 161, 1-{2-[4-(2,4-difluorophenoxy)piperidin-1-yl]-3-[6-(methoxymethyl)pyridin-2-yl]-5H,6H,7H,8H-pyrido[3,4-b]pyrazin-6-yl}ethan-1-one], the IC50 against GPR3 and on GPR6 was 1 to 30 µM each time.

On to `CC(=O)N1CCc2nc(N3CCC(Oc4ccc(F)cc4F)CC3)c(-c3cnn(C4CN(C(C)=O)C4)c3)nc2C1` [Compound 163, 1-[3-(4-{6-acetyl-2-[4-(2,4-difluorophenoxy)piperidin-1-yl]-5H,6H,7H,8H-pyrido[3,4-b]pyrazin-3-yl}-1H-pyrazol-1-yl)azetidin-1-yl]ethan-1-one], for which the half-inhibitory concentration (IC50) at GPR3 and against GPR6 was 1 to 30 µM each time.

As for `CC(=O)N1CCc2nc(N3CCC(Oc4ccc(F)cc4F)CC3)c(-c3cnn(C4CC4)c3)nc2C1` [Compound 164], the IC50 is 1 to 30 µM against GPR3 and 0.1 to 1 µM at GPR6.

Regarding `CC(=O)N1CCc2nc(N3CCC(Oc4ccc(F)cc4F)CC3)c(-c3cnn(C(C)C)c3)nc2C1` [Compound 165, 1-{2-[4-(2,4-difluorophenoxy)piperidin-1-yl]-3-[1-(propan-2-yl)-1H-pyrazol-4-yl]-5H,6H,7H,8H-pyrido[3,4-b]pyrazin-6-yl}ethan-1-one], the IC50 against GPR3 was 1 to 30 µM; at GPR6 it was under 0.1 µM.

As to `CC(=O)N1CCc2nc(N3CCC(Oc4ccc(F)cc4F)CC3)c(-c3cccc(-c4cn[nH]c4)n3)nc2C1` [Compound 166, 1-{2-[4-(2,4-difluorophenoxy)piperidin-1-yl]-3-[6-(1H-pyrazol-4-yl)pyridin-2-yl]-5H,6H,7H,8H-pyrido[3,4-b]pyrazin-6-yl}ethan-1-one], the IC50 at GPR3 lay within 1 to 30 µM; against GPR6, 0.1 to 1 µM.

As for `CC(=O)N1CCc2nc(-c3cccc(=O)[nH]3)c(N3CCC(Oc4ccc(F)cc4F)CC3)nc2C1` [Compound 167, 6-{6-acetyl-3-[4-(2,4-difluorophenoxy)piperidin-1-yl]-5H,6H,7H,8H-pyrido[3,4-b]pyrazin-2-yl}-1,2-dihydropyridin-2-one], the IC50 at GPR3 and on GPR6 was 1 to 30 µM in each case.

For the compound `CC(=O)N1CCc2nc(N3CCC(Oc4ccc(F)cc4F)CC3)c(-c3cccc(N)n3)nc2C1` [Compound 168, 1-[3-(6-aminopyridin-2-yl)-2-[4-(2,4-difluorophenoxy)piperidin-1-yl]-5H,6H,7H,8H-pyrido[3,4-b]pyrazin-6-yl]ethan-1-one], the IC50 on GPR3 is 0.1 to 1 µM; against GPR6 it was under 0.1 µM.

For the compound `CN1CCc2nc(N3CCC(Oc4ccc(F)cc4F)CC3)c(-c3cnn(C4CCCCO4)c3)nc2C1` (stereo not shown) [Compound 169, 4-(2,4-difluorophenoxy)-1-{6-methyl-3-[1-(oxan-2-yl)-1H-pyrazol-4-yl]-5H,6H,7H,8H-pyrido[3,4-b]pyrazin-2-yl}piperidine], the IC50 at GPR3 and at GPR6 was 1 to 30 µM each time.

As to `CCN1CCc2nc(N3CCC(Oc4ccc(F)cc4F)CC3)c(-c3cn[nH]c3)nc2C1` [Compound 170, 4-(2,4-difluorophenoxy)-1-[6-ethyl-3-(1H-pyrazol-4-yl)-5H,6H,7H,8H-pyrido[3,4-b]pyrazin-2-yl]piperidine], the values for the IC50 on GPR3 and against GPR6 were 1 to 30 µM and 0.1 to 1 µM, respectively.

In the case of `N#CN1CCc2nc(N3CCC(Oc4ccc(F)cc4F)CC3)c(-c3cn[nH]c3)nc2C1` [Compound 171, 2-[4-(2,4-difluorophenoxy)piperidin-1-yl]-3-(1H-pyrazol-4-yl)-5H,6H,7H,8H-pyrido[3,4-b]pyrazine-6-carbonitrile], the IC50 against GPR3 is 1 to 30 µM; at GPR6, under 0.1 µM.
